Assay results from PubChem BioAssay AID2060490 (Molecular Pharmacology Branch, DTP, NCI, 2025).

Tested on: 885512-296-R-J2-PDC complex spheroid viability
Test: Anticancer human tumor 885512-296-R-J2-PDC patient-derived breast carcinoma cell line growth inhibition [GQUAD]
Settings: for IC50: curve of first compound; for viability, T/C: stronger effect = lower value; active = viability on the fitted dose curve at most 10% of control; inactive = the rest
Source text: DNA G-quadruplex Stabilizer Agents in Combinations in Complex Spheroids
A high-throughput screen of multi-cell type tumor spheroids was designed to identify active combinations of DNA G-quadruplex stabilizer agents and targeted small molecules. Complex spheroids include a stromal component modeled by human endothelial cells (HUVEC) and fibroblasts modeled by human mesenchymal stem cells (MSCs). The concentration ranges selected for each drug and investigational agent were based upon clinically achievable concentrations if the clinical Cmax of the agent was known.
Compounds. The drugs and investigational agents: pidnarulex (CX-5461; NSC782164), APTO-253 (NSC789042), BRACO-19 (NSC847499), peposertib (NSC802822), ceralasertib (NSC780249), elimusertib (NSC800525), camonsertib (NSC841442), AZD-1390 (NSC803789), olaparib (NSC753686), talazoparib (NSC767125), ART-558 (NSC835418), sotorasib (NSC818433), MRTX-1133 (NSC836407), SN-38 (NSC673596), topotecan (NSC609699), etoposide (NSC141540), doxorubicin (NSC123127), gemcitabine (NSC613327), 5-fluorouracil (NSC19893), paclitaxel (NSC125973), vemurafenib (NSC761431), panobinostat (NSC761190), R-306465 (JNJ-16241199; NSC773264), adavosertib (NSC754352), TP-3654 (NSC805149), carboplatin (NSC241240), KSQ-4279 (NSC840948), and staurosporine (NSC755774) were obtained from the National Cancer Institute (NCI) Developmental Therapeutics Program Chemical Repository (34). The FDA-approved anticancer drug set is available from the NCI Developmental Therapeutics Program. […] The stock solutions were prepared in dimethyl sulfoxide (DMSO, Sigma-Aldrich, St. Louis, MO, cat. D2650) at 800-fold the tested concentration and stored at -70 degrees C prior to their use. All drugs and investigational agents were tested over a range starting from a high concentration at or near the clinical Cmax and decreasing in half-log increments. If the clinical Cmax for an agent had not been determined, the highest concentration tested was 10 microM.
2.3 Cell Culture. All cells were maintained in an incubator at 37 degrees C and 5% CO2 with 95% humidity. The PDC lines were cultured according to standard operating procedures established by the NCI PDMR. All PDCs were thawed and cultured in Matrigel-coated flasks prepared with a working solution of 1X Ham's F-12 nutrient mix, without supplementation (Invitrogen, cat. 11765054), 100 U/mL penicillin-streptomycin (Invitrogen, cat. 15140122), and 2.5% Matrigel (Corning Inc., cat. 354248) for the first three passages. The 857933-349-R-J2-PDC line was cultured in 6C/Colon 1B media, which includes advanced DMEM/F-12 (Thermo Fisher Scientific, cat. 12634028), 10 mM HEPES (Thermo Fisher Scientific, cat. 15630080), 1X GlutaMAX supplement (Thermo Fisher Scientific, cat. 35050061), 0.1 mg/mL primocin (InvivoGen, cat. ant-pm-2), 10% defined fetal bovine serum, heat inactivated (HyClone Laboratories Inc., cat. SH30070.03HI), 50% L-WRN conditioned media (ATCC, cat. CRL-3276), 1.25 mM N-Acetyl-L-cysteine (Sigma-Aldrich, cat. A9165), 10 mM nicotinamide (Sigma-Aldrich, cat. N0636), 1X B-27 supplement (Thermo Fisher Scientific, cat. 17504044), 1X N-2 supplement (Thermo Fisher Scientific, cat. 17502048), 10 microM Y-27632 dihydrochloride (Tocris Bioscience, cat. 1254), and 50 ng/mL human EGF recombinant protein (Thermo Fisher Scientific, cat. PHG0311). The 485176-168-R4-J1-PDC line was cultured in Panc media, which includes all 6C/Colon 1B media components plus 100 ng/mL human FGF-10 (Thermo Fisher Scientific, cat. 100-26), 500 nM SB-431542 (Selleckchem, cat. S1067), and gastrin (Tocris, cat. 3006).
[…]

[1] = second compound 0.0316 µM, first compound 0.0316 µM
[2] = second compound 0.0316 µM, first compound 0.1 µM
[3] = second compound 0.0316 µM, first compound 0.316 µM
[4] = second compound 0.0316 µM, first compound 1 µM
[5] = second compound 0.0316 µM, first compound 3.16 µM
[6] = second compound 0.0316 µM, first compound 10 µM
[7] = second compound 0.1 µM, first compound 0.0316 µM
[8] = second compound 0.1 µM, first compound 0.1 µM
[9] = second compound 0.1 µM, first compound 0.316 µM
[10] = second compound 0.1 µM, first compound 1 µM
[11] = second compound 0.1 µM, first compound 3.16 µM
[12] = second compound 0.1 µM, first compound 10 µM
[13] = second compound 0.316 µM, first compound 0.0316 µM
[14] = second compound 0.316 µM, first compound 0.1 µM
[15] = second compound 0.316 µM, first compound 0.316 µM
[16] = second compound 0.316 µM, first compound 1 µM
[17] = second compound 0.316 µM, first compound 3.16 µM
[18] = second compound 0.316 µM, first compound 10 µM
[19] = second compound 1 µM, first compound 0.0316 µM
[20] = second compound 1 µM, first compound 0.1 µM
[21] = second compound 1 µM, first compound 0.316 µM
[22] = second compound 1 µM, first compound 1 µM
[23] = second compound 1 µM, first compound 3.16 µM
[24] = second compound 1 µM, first compound 10 µM
[25] = second compound 3.16 µM, first compound 0.0316 µM
[26] = second compound 3.16 µM, first compound 0.1 µM
[27] = second compound 3.16 µM, first compound 0.316 µM
[28] = second compound 3.16 µM, first compound 1 µM
[29] = second compound 3.16 µM, first compound 3.16 µM
[30] = second compound 3.16 µM, first compound 10 µM
[31] = second compound 10 µM, first compound 0.0316 µM
[32] = second compound 10 µM, first compound 0.1 µM
[33] = second compound 10 µM, first compound 0.316 µM
[34] = second compound 10 µM, first compound 1 µM
[35] = second compound 10 µM, first compound 3.16 µM
[36] = second compound 10 µM, first compound 10 µM
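Note: spheroids exposed to the compounds for one week.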
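Throughout, for viability, T/C: percent of tumor spheroid viability relative to DMSO vehicle control wells.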

Nc1ccn(C2OC(CO)C(O)C2(F)F)c(=O)n1 (centres undefined) + CN(C)c1ccc(Nc2c3ccc(NC(=O)CCN4CCCC4)cc3nc3cc(NC(=O)CCN4CCCC4)ccc23)cc1
active: viability, T/C [1] 9.1% | viability, T/C [2] 2.14% | viability, T/C [3] 2.5% | viability, T/C [4] 3.16% | viability, T/C [5] 3.03% | viability, T/C [6] 2.58% | viability, T/C [7] 7.88% | viability, T/C [8] 2.78% | viability, T/C [9] 2.67% | viability, T/C [10] 2.57% | viability, T/C [11] 2.19% | viability, T/C [12] 2.48% | viability, T/C [13] 6.92% | viability, T/C [14] 2.8% | viability, T/C [15] 3.02% | viability, T/C [16] 2.49% | viability, T/C [17] 2.88% | viability, T/C [18] 2.91% | viability, T/C [19] 7.45% | viability, T/C [20] 2.12% | viability, T/C [21] 2.71% | viability, T/C [22] 2.43% | viability, T/C [23] 2.45% | viability, T/C [24] 2.25% | viability, T/C [25] 8.52% | viability, T/C [26] 3.21% | viability, T/C [27] 2.06% | viability, T/C [28] 2.2% | viability, T/C [29] 2.24% | viability, T/C [30] 1.81% | viability, T/C [31] 7.17% | viability, T/C [32] 2.02% | viability, T/C [33] 2.12% | viability, T/C [34] 1.7% | viability, T/C [35] 1.53% | viability, T/C [36] 1.39%
< 0.0316 µM: IC50 (second compound 0.0316 µM) | IC50 (second compound 0.1 µM) | IC50 (second compound 0.316 µM) | IC50 (second compound 1 µM) | IC50 (second compound 3.16 µM) | IC50 (second compound 10 µM)

O=C(c1cc(Cc2n[nH]c(=O)c3ccccc23)ccc1F)N1CCN(C(=O)C2CC2)CC1 + CN(C)c1ccc(Nc2c3ccc(NC(=O)CCN4CCCC4)cc3nc3cc(NC(=O)CCN4CCCC4)ccc23)cc1
7.9 µM: IC50 (second compound 0.1 µM)
7.31 µM: IC50 (second compound 1 µM)
7.33 µM: IC50 (second compound 0.316 µM)
< 0.0316 µM: IC50 (second compound 10 µM)
5.34 µM: IC50 (second compound 3.16 µM)
7.62 µM: IC50 (second compound 0.0316 µM)
inactive: viability, T/C [1] 105% | viability, T/C [2] 103% | viability, T/C [3] 132% | viability, T/C [4] 139% | viability, T/C [5] 117% | viability, T/C [6] 29.2% | viability, T/C [7] 102% | viability, T/C [8] 94.9% | viability, T/C [9] 119% | viability, T/C [10] 145% | viability, T/C [11] 120% | viability, T/C [12] 33% | viability, T/C [13] 93.7% | viability, T/C [14] 110% | viability, T/C [15] 118% | viability, T/C [16] 131% | viability, T/C [17] 123% | viability, T/C [18] 25.7% | viability, T/C [19] 85.2% | viability, T/C [20] 102% | viability, T/C [21] 116% | viability, T/C [22] 152% | viability, T/C [23] 105% | viability, T/C [24] 29.1% | viability, T/C [25] 95% | viability, T/C [26] 107% | viability, T/C [27] 125% | viability, T/C [28] 107% | viability, T/C [29] 67.8% | viability, T/C [30] 28.7% | viability, T/C [31] 20.7% | viability, T/C [32] 23.3% | viability, T/C [33] 20.1% | viability, T/C [34] 19.2% | viability, T/C [35] 20.8% | viability, T/C [36] 15.8%
